Test results as given in publication PMC4990184, “The Tp0684 (MglB-2) Lipoprotein of Treponema pallidum: A Glucose-Binding Protein with Divergent Topology” (PLoS ONE, 2016).
Read-outs that look alike come from different tables or passages of the source.

Key:
[1] = target: T1, TpMglB-2 (Tp0684), wild-type (Treponema pallidum, UniProt Q08255); experiment: Isothermal titration calorimetry (ITC) of sugars into wild-type TpMglB-2; type: binding; conditions: for binding heats in ITC control titrations: wild-type TpMglB-2, qualitative
T1 construct: the DNA fragment encoding amino acid residues 11–378 (cloned without the post-translationally modified N-terminal Cys); made in house; host or cells: E. coli BL21 AI (co-transformed with pGroESL)
Description: (§1) TpMglB-2 was dialyzed exhaustively against Assay Buffer (10 mM sodium phosphate, pH 7.4, 100 mM NaCl). The sugars to be titrated were dissolved in the same buffer. All titrations were carried out in an iTC200 calorimeter (Malvern, Malvern, UK). A typical titration scheme featured 19 or 20 2-μL injections of 500 μM of the monosaccharide into 50 μM protein in the ca. 200-μL stirred interaction cell. However, the concentrations were sometimes altered to sample a wider range of concentration space. Three titrations were performed per sugar, and the resulting thermograms were serially integrated using NITPIC v. 1.1.7 [54, 78]. All titrations for a given sugar were globally analyzed in ITCsy[55], and confidence intervals were obtained using the error-surface projection method. All ITC illustrations were rendered in GUSSI [79].

TpMglB-2 [2] = target: T2, TpMglB-2 (Treponema pallidum, UniProt Q08255); experiment: Differential scanning fluorimetry (DSF) carbon-source screen; type: binding; conditions: for binding in the DSF assay: qualitative; for shift in Tm, app: 10 μM protein, BIOLOG compounds, vs water control
T2 construct: the DNA fragment encoding amino acid residues 11–378 (cloned without the post-translationally modified N-terminal Cys); made in house; host or cells: E. coli BL21 AI (co-transformed with pGroESL)
Excerpt: The unconventional structural organization and the altered Ca^2+-binding site of TpMglB-2 provoked a question: does such a structurally rearranged LBP function similarly to other LBPs? To address this question, we first examined ligand binding. In a previous study on TpMglB-2, we reported that the protein preferred D-glucose and D-galactose over a small number of other monsaccharide carbon sources. However, we wished to interrogate a larger panel of such sources to investigate whether another ligand would bind to the protein with even higher affinity. We thus employed differential scanning fluorimetry (DSF) as a means to probe for ligand binding. This method examines the apparent melting temperature (Tm, app) of the protein; the “apparent” nomenclature is added in recognition of the fact that the reversibility of the transition was not tested in these experiments. Presumably, in the presence of a specifically bound ligand, the protein’s structure will be stabilized, resulting in a higher Tm, app. We used this plate-based method to qualitatively assay for the binding of 190 carbon sources. Only D-glucose and D-galactose caused significant shifts (> 1.5° C) in Tm, app (Fig 5). Thus, these were the only candidate compounds that were selected for additional study.
The thermal stability of TpMglB-2 in the presence of various putative ligands was determined in a 96-well PCR-plate (Bio-Rad Laboratories, Inc., Hercules, CA). The assumption was that binding ligands would enhance the thermal stability of the protein. For carbon-source screening, Biolog's Phenotype MicroArray (PM) compounds supplied in 96-well microplates (BIOLOG, Inc., Hayward, CA) were dissolved in 50 μL of sterile water to obtain a final concentration of around 10–20 mM. Screenings were performed with plates PM1 and PM2A. Each plate contains 95 compounds and a blank (no ligand) control. The complete plate contents are available at the BIOLOG website (www.biolog.com).
Each 20 μL standard assay mixture in a 96-well PCR-plate contained 10 μM purified protein and SYPRO Orange (Life Technologies) at 5x concentration in a buffer containing 10 mM phosphate, 100 mM NaCl, pH 7.4. Two μL of the resuspended BIOLOG compounds were added to each well. The plate was sealed and placed in a BioRad CFX96 real-time PCR detector coupled to a C1000 thermal cycler (BioRad Laboratories, Inc., Hercules, CA), and the fluorescence of the dye was monitored as a function of temperature from 4° C to 95° C. Fluorescence readings were recorded every 0.5° C. The data were transformed to–dF/dT v. T curves, and the abscissas of the minima in these curves were defined as the apparent melting temperatures (Tm, app). Significant positive shifts in Tm, app were taken as positive results and were confirmed using ITC.

TpMglB-2 [3] = target: T2, TpMglB-2
TpMglB-2 N19A = target: T3, TpMglB-2 N19A (Treponema pallidum, UniProt Q08255, N44A); experiment: ITC of D-glucose into TpMglB-2 N19A variant; type: binding; parameters: key: NH: No observable heat of ligand binding
T3 construct: the DNA fragment encoding amino acid residues 11–378 (cloned without the post-translationally modified N-terminal Cys); made in house; host or cells: E. coli BL21 AI
Description: (§2) For the construction of the recombinant TpMglB-2 variants, the N19A, W145A, D195A and F313A mutation was individually introduced into the plasmid carrying the wild-type tp0684 sequence using the QuikChange site-directed mutagenesis kit (Agilent Technologies, Santa Clara, CA). The mutation was confirmed by DNA sequencing. The mutant protein was expressed and purified as described above. Protein concentrations were determined in buffer A (20 mM Hepes, 0.1 M NaCl, pH 7.5, 2 mM n-Octyl-β-D-glucopyranoside) using spectrophotometry. Extinction coefficients were calculated using the Protparam tool of ExPASy (www.expasy.org).
as §1, with “All ITC illustrations were rendered in GUSSI [79].” left out

TpMglB-2 W145A = target: T4, TpMglB-2 W145A (Treponema pallidum, UniProt Q08255, W170A); experiment: ITC of D-glucose into TpMglB-2 W145A variant; type: binding
T4 construct: the DNA fragment encoding amino acid residues 11–378 (cloned without the post-translationally modified N-terminal Cys); made in house; host or cells: E. coli BL21 AI
Description: as §2
as §1, with “All ITC illustrations were rendered in GUSSI [79].” left out

TpMglB-2 D195A = target: T5, TpMglB-2 D195A (Treponema pallidum, UniProt Q08255, D220A); experiment: ITC of D-glucose into TpMglB-2 D195A variant; type: binding; parameters: key: NH: No observable heat of ligand binding
T5 construct: the DNA fragment encoding amino acid residues 11–378 (cloned without the post-translationally modified N-terminal Cys); made in house; host or cells: E. coli BL21 AI
Description: as §2
as §1, with “All ITC illustrations were rendered in GUSSI [79].” left out

TpMglB-2 F313A = target: T6, TpMglB-2 F313A (Treponema pallidum, UniProt Q08255, F338A); experiment: ITC of D-glucose into TpMglB-2 F313A variant; type: binding; parameters: key: NH: No observable heat of ligand binding
T6 construct: the DNA fragment encoding amino acid residues 11–378 (cloned without the post-translationally modified N-terminal Cys); made in house; host or cells: E. coli BL21 AI
Description: as §2
as §1, with “All ITC illustrations were rendered in GUSSI [79].” left out

TpMglB-2 [4] = target: T2, TpMglB-2; experiment: Sedimentation velocity analytical ultracentrifugation (conventional SV); conditions: 100 μM D-glucose, 20° C; 95% confidence interval in brackets; apo-TpMglB-2 3.212 S
Description: Our initial attempt to examine whether this small difference could be detected was conducted using conventional SV. In experiments carried out simultaneously, we sedimented apo-TpMglB-2 and also the protein in the presence of 100 μM D-glucose. By analyzing the data with a non-interacting discrete species model, we could perform a careful analysis using F-statistics that would establish realistic 95% confidence intervals (shown below in brackets) on the refined parameter s. For apo-TpMglB-2, the refined experimental s-value was 3.212 [3.204–3.219] S. The same value of the protein in the presence of D-glucose was 3.292 [3.288–3.297] S. We can estimate the statistical significance of this difference the F-statistic formalism. If we fix the s-value of the apo-protein to that of the liganded protein and repeat the analysis, we arrive at a χ^2 ratio between the two analyses of 1.86. […]
All AUC experiments were carried out at 20° C in a Beckman-Coulter Optima XL-I centrifuge (Beckman-Coulter Inc., Indianapolis, IN), and Assay Buffer was used in all cases. […] Centrifugation continued for about 16 h, and concentration-profile data were collected using both absorbance and interference optics. Data were initially analyzed using the c(s) method in SEDFIT [82, 83]. As warranted, data were also analyzed using a discrete-species model in SEDPHAT [62].

TpMglB-2 [5] = target: T2, TpMglB-2; experiment: Difference sedimentation velocity; conditions: for Δs/s¯: 5 mg/mL TpMglB-2, 95% confidence interval in brackets
Description: Minute sedimentation-coefficient differences are readily detected using a method pioneered in H. Schachman’s lab called “difference sedimentation velocity” [64]. This method provides a direct, side-by-side comparison of the sedimentation velocity of two macromolecular solutes. In brief, two samples of 5 mg/mL TpMglB-2 were prepared. To one sample, a non-binding sugar, either D-mannose or D-ribose (these sugars evidenced no binding in neither the DSF nor ITC assays), was introduced, whereas an identical concentration of D-glucose was added to the other. The protein sample with the non-binding sugar was placed in the reference sector of a centrifugation centerpiece, and the sample sector of the same centerpiece was filled with the D-glucose-containing protein solution. Centrifugation was initiated, and Rayleigh laser interferometry was used to monitor the sedimentation. Because this mode of data collection reports on refractive-index differences between the two sectors, the difference between the sedimentation in the two sectors is recorded. This signal (for unequal solution-column heights) will appear roughly as a Gaussian-shaped curve inverted about the radial axis (Fig 8A). If the macromolecular solutes in each sector sediment at different rates, the absolute value of the area of (or, more specifically, the normalized first moment of) this curve will increase as sedimentation continues. This trend reports on the fractional sedimentation-coefficient difference between the solutes in the reference and sample sectors, termed Δs/s¯ , i.e. the change in s normalized by the mean s-value. […]
For difference SV studies, a slightly different protocol was followed. […] Sedimentation and sedimentation differences were monitored using the interference optics only; scans were obtained every 60 s for almost 17 h.
As presented by the data-acquisition software, interference data have the amount of fringe displacement, J, on the y-axis and the radius from the center of rotation on x-axis (r). In this case, of course, the difference in fringe displacement, ΔJ, was measured. […]

T2 sequence (Q08255 36-403): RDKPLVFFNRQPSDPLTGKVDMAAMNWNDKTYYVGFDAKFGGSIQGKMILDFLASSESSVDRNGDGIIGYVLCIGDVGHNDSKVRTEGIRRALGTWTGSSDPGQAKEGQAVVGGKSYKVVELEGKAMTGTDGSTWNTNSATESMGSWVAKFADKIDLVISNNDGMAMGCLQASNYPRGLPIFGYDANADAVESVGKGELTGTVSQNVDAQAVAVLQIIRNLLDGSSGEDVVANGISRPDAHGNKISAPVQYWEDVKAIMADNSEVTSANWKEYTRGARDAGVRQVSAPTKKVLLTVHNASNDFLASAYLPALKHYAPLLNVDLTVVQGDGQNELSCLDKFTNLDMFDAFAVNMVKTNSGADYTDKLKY
T1 sequence (Q08255 36-403): as above
T4 sequence (Q08255 36-403 W170A): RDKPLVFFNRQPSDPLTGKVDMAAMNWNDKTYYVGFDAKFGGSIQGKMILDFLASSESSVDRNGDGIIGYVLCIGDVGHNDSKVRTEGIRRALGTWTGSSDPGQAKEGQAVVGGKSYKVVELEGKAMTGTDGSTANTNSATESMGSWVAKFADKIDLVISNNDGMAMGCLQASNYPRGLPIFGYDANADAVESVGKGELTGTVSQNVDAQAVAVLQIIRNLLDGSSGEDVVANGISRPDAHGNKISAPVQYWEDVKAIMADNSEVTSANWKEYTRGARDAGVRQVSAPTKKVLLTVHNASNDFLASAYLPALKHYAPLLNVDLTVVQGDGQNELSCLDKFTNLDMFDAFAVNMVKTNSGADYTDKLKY
T3 sequence (Q08255 36-403 N44A): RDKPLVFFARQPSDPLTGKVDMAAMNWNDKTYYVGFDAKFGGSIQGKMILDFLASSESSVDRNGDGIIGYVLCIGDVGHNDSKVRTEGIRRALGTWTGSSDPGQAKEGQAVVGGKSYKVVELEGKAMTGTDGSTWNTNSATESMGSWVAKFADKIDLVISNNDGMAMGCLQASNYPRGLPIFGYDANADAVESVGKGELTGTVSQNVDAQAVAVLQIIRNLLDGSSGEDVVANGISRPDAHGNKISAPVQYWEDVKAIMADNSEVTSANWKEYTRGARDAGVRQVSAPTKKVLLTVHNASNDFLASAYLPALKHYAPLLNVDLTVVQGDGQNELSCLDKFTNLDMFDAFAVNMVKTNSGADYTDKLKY
T6 sequence (Q08255 36-403 F338A): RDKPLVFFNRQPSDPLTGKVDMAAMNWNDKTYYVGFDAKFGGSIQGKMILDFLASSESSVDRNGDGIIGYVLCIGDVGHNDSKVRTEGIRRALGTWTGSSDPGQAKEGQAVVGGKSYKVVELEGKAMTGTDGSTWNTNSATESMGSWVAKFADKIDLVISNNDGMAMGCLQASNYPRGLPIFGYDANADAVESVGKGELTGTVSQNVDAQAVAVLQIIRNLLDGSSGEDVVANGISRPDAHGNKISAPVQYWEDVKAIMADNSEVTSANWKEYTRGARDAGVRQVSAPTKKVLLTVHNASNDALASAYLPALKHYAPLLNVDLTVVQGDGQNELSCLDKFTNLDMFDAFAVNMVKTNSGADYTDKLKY
T5 sequence (Q08255 36-403 D220A): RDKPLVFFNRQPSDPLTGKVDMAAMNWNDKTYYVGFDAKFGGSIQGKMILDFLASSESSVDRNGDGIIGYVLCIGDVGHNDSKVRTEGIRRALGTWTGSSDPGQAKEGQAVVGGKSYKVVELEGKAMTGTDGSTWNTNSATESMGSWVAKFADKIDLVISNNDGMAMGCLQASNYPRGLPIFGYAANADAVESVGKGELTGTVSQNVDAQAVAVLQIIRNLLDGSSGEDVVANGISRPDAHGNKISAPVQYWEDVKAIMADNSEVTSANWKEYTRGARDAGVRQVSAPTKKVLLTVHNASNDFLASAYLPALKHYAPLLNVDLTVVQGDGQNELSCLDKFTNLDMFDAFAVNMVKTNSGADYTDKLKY

SMILES: OC[C@H]1OC(O)[C@@H](O)[C@@H](O)[C@@H]1O (stereo partly drawn) [D-Mannose, reference compound]
- binding heats in ITC control titrations [1]: failed to exhibit any binding heats
- binding in the DSF assay (TpMglB-2 [2]): failed to bind

SMILES: O=C[C@H](O)[C@@H](O)[C@@H](O)[C@H](O)CO [D-galactose]
- KD for D-galactose relative to that of D-glucose ([1]; wild-type TpMglB-2): 30 fold
- shift in Tm, app (TpMglB-2 [2]): > 1.5 °C
- Kd (TpMglB-2 [3]; read-out: equilibrium dissociation constant; similar TpMglB-2 construct, 20 mM NaCl; cited from earlier work): 0.25 µM

SMILES: OC[C@H]1OC(O)[C@H](O)[C@@H](O)[C@@H]1O (stereo partly drawn) [D-glucose]
- Kd ([1]; wild-type TpMglB-2, 10 mM sodium phosphate pH 7.4, 100 mM NaCl, 68.3% confidence intervals in brackets): 1.1 µM
- KD (TpMglB-2 N19A): NH^b
- KD for glucose binding of W145A relative to the wild-type protein (TpMglB-2 W145A): tenfold higher
- Kd (TpMglB-2 W145A; W145A variant, 68.3% confidence intervals in brackets): 12.7 µM
- KD (TpMglB-2 D195A): NH
- KD (TpMglB-2 F313A): NH
- shift in Tm, app (TpMglB-2 [2]): > 1.5 °C
- refined experimental s-value of TpMglB-2 in the presence of the sugar (TpMglB-2 [4]): 3.292 [3.288–3.297] S
- Δs/s¯ (TpMglB-2 [5]; D-glucose in sample sector vs D-mannose in reference sector): about 0.0177 [0.0163, 0.0191]
- Δs/s¯ (TpMglB-2 [5]; D-glucose in sample sector vs D-ribose in reference sector): 0.0180 [0.0163, 0.0197]
- observed change in s (Δs/s¯ multiplied by the observed s, 3.2 S) (TpMglB-2 [5]; D-glucose vs non-binding sugar): approximately 0.06 S
- Kd (TpMglB-2 [3]; similar TpMglB-2 construct, 20 mM NaCl; read-out: equilibrium dissociation constant; cited from earlier work): 0.15 µM

SMILES: O=C[C@H](O)[C@H](O)[C@H](O)CO [D-ribose, reference compound]
- binding heats in ITC control titrations [1]: failed to exhibit any binding heats
- binding in the DSF assay (TpMglB-2 [2]): failed to bind
